Reference: patent US20030022920A1, “1-Methyl-4- (3-ethoxy-9H-thioxanthene-9-ylidene) -piperidine and its use as 5-HT2B/H1 receptor antagonist” (priority 2001, published 2003)

Assays:
[1] = biological target: T1, 5-HT receptors (the putative 5-HT2B) in rat stomach fundus longitudinal muscle (Rattus norvegicus, UniProt P30994); test: 5-HT2B receptor tissue based functional assay in rat stomach fundus longitudinal muscle; format: biochemical; conditions: dextral shift of 5-HT agonist concentration-response curve, rat stomach fundus strips; result in words only
T1 construct: Strips of longitudinal muscle were obtained from the stomach fundus of male Sprague Dawley rats; from tissue; host or cells: rat stomach fundus longitudinal muscle strips
T1 sequence (P30994 whole entry): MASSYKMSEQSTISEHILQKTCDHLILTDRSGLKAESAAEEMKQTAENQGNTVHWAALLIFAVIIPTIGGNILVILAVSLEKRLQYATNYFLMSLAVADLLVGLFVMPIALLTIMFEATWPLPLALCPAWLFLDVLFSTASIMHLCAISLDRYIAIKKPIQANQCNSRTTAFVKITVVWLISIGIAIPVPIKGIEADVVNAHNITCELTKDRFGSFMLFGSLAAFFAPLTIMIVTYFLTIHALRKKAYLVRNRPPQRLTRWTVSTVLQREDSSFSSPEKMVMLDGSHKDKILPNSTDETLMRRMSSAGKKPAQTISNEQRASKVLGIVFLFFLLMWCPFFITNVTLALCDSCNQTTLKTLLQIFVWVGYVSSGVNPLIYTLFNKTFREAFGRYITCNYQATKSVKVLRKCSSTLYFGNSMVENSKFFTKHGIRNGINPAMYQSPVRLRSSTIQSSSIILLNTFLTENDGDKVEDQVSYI
Method: 5-HT2B Receptor Tissue Based Functional Assay
The following describes an in vitro functional assay characterizing 5-HT receptors (the putative 5-HT2B) in rat stomach fundus longitudinal muscle (Baxter et al., Brit. J. Pharmacol. 1994, 112, 323-331).
Strips of longitudinal muscle were obtained from the stomach fundus of male Sprague Dawley rats. The mucosa was removed and the strips were suspended with a resting tension of 1 g in oxygenated (95% O2/5% CO2) Tyrode solution at 37° C. The composition of the Tyrode solution was as follows (mM): NaCl 136.9; KCl 2.7; NaH2PO4 0.4; MgCl2 1.0; glucose 5.6; NaHCO3 11.9; CaCl2 1.8. […]
Effects of drugs were monitored by tension transducers and recorded on polygraph recorders. Tissue response was measured as changes in isometric tension (g). The mean potency (EC50) and maximum response were evaluated by standard iterative curve fitting procedures.
Effects of antagonists were determined by measuring dextral shifts to the agonist concentration-response curve after equilibration of the antagonists for at least 1 h. Concentration ratios were measured at half maximal response levels and single concentration antagonist affinities were determined by the equation: [formula]

[2] = biological target: T2, human Histamine H1 receptor (Homo sapiens, UniProt P35367); test: Cloned human H1, H2 and H3 receptor binding assay ([3H]-mepyramine, transfected COS-7 cell homogenates); conditions: displacement of 1 nM [3H]-mepyramine, COS-7 homogenates; result in words only
T2 construct: expressed in transfected cells; host or cells: COS-7 (transient transfection; cell homogenates)
T2 sequence (P35367 whole entry): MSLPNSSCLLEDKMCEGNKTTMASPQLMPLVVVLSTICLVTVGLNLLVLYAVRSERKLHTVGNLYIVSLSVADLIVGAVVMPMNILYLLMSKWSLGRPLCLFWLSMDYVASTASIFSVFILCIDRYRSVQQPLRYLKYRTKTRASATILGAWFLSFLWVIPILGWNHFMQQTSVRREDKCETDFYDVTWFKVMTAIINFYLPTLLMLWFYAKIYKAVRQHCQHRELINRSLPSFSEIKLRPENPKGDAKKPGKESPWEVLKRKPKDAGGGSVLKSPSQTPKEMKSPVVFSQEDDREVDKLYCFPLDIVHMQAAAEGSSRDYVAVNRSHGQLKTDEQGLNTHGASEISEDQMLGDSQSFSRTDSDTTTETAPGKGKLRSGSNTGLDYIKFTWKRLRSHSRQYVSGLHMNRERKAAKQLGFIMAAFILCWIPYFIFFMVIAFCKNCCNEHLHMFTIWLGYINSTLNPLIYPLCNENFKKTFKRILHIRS
Method: Cloned Human H1, H2, and H3 Receptor Binding Assay
COS-7 cells were transiently transfected with an expression plasmid pCineohH1, pCineohH2, pCineohH3 and pCineohH4 encoding the human Histamine H1, H2, H3 or H4 receptor, respectively. Transfected cells were harvested after 48 h, homogenized in ice-cold 50 mM Na2/potassium phosphate buffer (pH 7.4) and used for radioligand binding studies. Cell homogenates (40-50 μg of protein) were incubated for 30 min at 25° C. in 50 mM Na2/potassium phosphate buffer (pH 7.4) in 400 μl with the various concentrations of either [^3H]-mepyramine, [^3H]-thiotidine, [^3H]-R-α-Methylhistamine, and [^3H]-pyramilamine for cells expressing recombinant human H1, H2, H3 and H4 receptors, respectively. The nonspecific binding was defined in the presence of 1 μM mianserin. In displacement studies, cell homogenated were incubated either with 1 nM [^3H]-mepyramine, 15 nM [^3H]-thiotidine, 0.5 nM [^3H]-R-α-Methylhistamine, or 15 nM [^3H]-pyramilamine and increasing concentrations of competing ligands. […] The bound radioactivity was seperated by filatration through Whatman GF/C filters that had been treated with 0.3% polyethyleneimine. Filters were washed twice in 3 ml of buffer and radioactivity retained on the filters was measured by liquid scinitllation counting. […]

[3] = biological target: T3, human H1 receptor (Homo sapiens, UniProt P35367); test: Human histamine H1 receptor functional assay ([3H]-inositol phosphate formation in transfected HEK-293 cells); format: cell-based; conditions: histamine-stimulated [3H]-inositol phosphate formation, result in words only
T3 construct: expressed in transfected cells; host or cells: HEK-293 (transient transfection; whole cells)
T3 sequence (P35367 whole entry): as above
Method: Human Histamine H1 Receptor Functional Assay
For the measurement of the [^3H]-inositol phosphate formation transiently transfected HEK-293 cells were seeded in 24 well plates and labeled to equilibrium with myo-[2-^3H]-inositol (3 iCi/ml) for an additional 24 hours in growth medium. The medium was aspirated and cells were washed once with 500 μl HBS-buffer (130 mM NaCl, 900 μM NaH2PO4, 800 μM MgSO4, 5.4 mM KCl, 1.8 mM CaCl2, 25 mM Glucose in 20 mM HEPES pH 7.4). Two min after applying 20 mM Li^+ the cells were stimulated by addition of histamine in HBS-buffer. The incubation was stopped by aspiration off the culture medium and the addition of cold 10 mM formic acid. [^3H]inositol phosphates were isolated by anion exchange chromatography (see Seuwen et al., 1988, EMBO J., 7, 161-168). The pKB value was calculated according to the formula: pKB=log (A′/A−1)−log [B], where A′/A is the ratio of the agonist concentrations (EC50 in the presence/EC50 in the absence of antagonist) and [B] the concentration of antagonist.

[4] = biological target: T4, human 5-HT2B receptor (Homo sapiens, UniProt P41595); test: 5-HT2A/5-HT2B/5-HT2C receptor binding methods (counter screen for selectivity); parameters: expressed in transfected cells; host or cells: HEK293; conditions: human 5-HT2B in HEK293, [3H]-5HT approx. 0.4 nM, 120 min at 4° C.; result in words only
T4 sequence (P41595 whole entry): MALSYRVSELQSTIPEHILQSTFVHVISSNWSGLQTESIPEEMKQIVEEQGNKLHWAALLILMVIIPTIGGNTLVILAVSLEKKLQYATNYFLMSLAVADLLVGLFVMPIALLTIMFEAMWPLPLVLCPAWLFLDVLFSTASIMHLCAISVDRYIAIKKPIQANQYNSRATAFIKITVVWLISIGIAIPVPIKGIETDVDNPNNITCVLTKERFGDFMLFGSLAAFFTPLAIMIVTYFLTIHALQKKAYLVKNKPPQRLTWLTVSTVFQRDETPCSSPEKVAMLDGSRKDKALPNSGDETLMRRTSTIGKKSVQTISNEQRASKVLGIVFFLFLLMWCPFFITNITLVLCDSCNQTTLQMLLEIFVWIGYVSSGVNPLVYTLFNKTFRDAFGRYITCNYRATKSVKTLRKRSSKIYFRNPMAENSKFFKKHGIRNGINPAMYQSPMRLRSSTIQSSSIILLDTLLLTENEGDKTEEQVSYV
Method: 5-HT2A 5-HT2B 5-HT2C Receptor Binding Methods
5-HT2A receptors were labelled with [^3H]ketanserin in human cortex, in HEK293 cells expressing a cloned human 5-HT2A receptor and in HEK293 cells expressing the rat 5-HT2A receptor. For competition binding studies the ligand concentration was approximately 0.1 nM. For saturation binding studies concentrations of radioligand ranged from 0.01 nM to 2.0 nM. Assays were conducted in 0.5 ml of assay buffer (50 mM Tris-HCl, 4 mM calcium chloride, 0.1% by weight ascorbic acid) (pH 7.4 at 4° C.). Non-specifc binding was defined with […] unlabelled ketanserin. After a 60 min incubation at 32° C., membranes were harvested onto filters treated with 0.1% by weight of polyethylenimine and the bound radioactivity was determined.
Human 5-HT2B receptors were labelled in HEK293 cells as described above. except that the radioligand was [^3H]-5HT and that the assay buffer contained pargyline in a concentration of 10 mM and 0.1% by weight of ascorbic acid. […]
Competition radioligand binding data was analyzed using a four parameter logistic equation and iterative curve-fitting techniques to obtain estimates of the IC50 and Hill slope. Kd values, determined from saturation binding studies were then used to calculate inhibition dissociation constants (Ki).

[5] = biological target: T4, human 5-HT2B receptor; test: Cloned human 5-HT2B receptor binding assay ([3H]-5HT, transfected HEK 293 cell membranes); parameters: expressed in transfected cells; host or cells: HEK 293 (transient transfection; membranes); conditions: [3H]5-HT 4 to 5 nM, 37° C. 30 min, result in words only
Method: Cloned Human 5-HT2B Receptor Binding Assay
The following describes an in vitro binding assay utilizing cloned 5-HT2B receptors radiolabelled with [^3H]-5HT.
HEK 293 cells transiently transfected with an expression plasmid pXMD1-hu2B encoding the human 5-HT2B receptor (see Schmuck et al., FEBS Lett., 1994, 342, 85-90) were used as described previously (Schmuck et al., Eur. J. Pharmacol., 1996, 8, 959-967). Two days after transfection cells were harvested, pelleted at 500 g for 5 min at 4° C., gently resuspended in ice-cold buffer1 (50 mM TRIS pH 7.7, 4 mM CaCl2) and homogenized using a Polytron PT 1200 tissue homogenizer (position 6 for 30 s). Cells were pelleted at 50,000 g, 4° C. for 10 min, washed with buffer1 and pelleted again. The final pellet was resuspended in incubation buffer (50 mM TRIS pH 7.7, 4 mM CaCl2, 10 μM pargyline and 0.1% by weight ascorbic acid). The binding assay consisted of 300 μl of membrane suspension (protein concentration =0.3 to 0.5 mg/ml), 150 μl of competing drug and 50 μl of [^3H]5-HT at a final concentration of 4 to 5 nM. […] Filters were counted by liquid scintillation. Non-specific binding was determined in the presence of an excess of 5-HT ([…]). […] Results are expressed as pK1 values. […]

CCOc1ccc2c(c1)Sc1ccccc1C2=C1CCN(C)CC1 [1-methyl-4-(3-ethoxy-9H-thioxanthene-9-ylidene)-piperidine]
antagonism at the 5-HT2B receptor [1]: found to be an antagonist at the 5-HT2B receptor | affinity for the human H1 receptor [2]: found to have affinity for the human H1 receptor | antagonism at the human H1 receptor [3]: found to be an antagonist at the human H1 receptor | affinity for the 5-HT2B receptor [4]: found to have affinity for the 5-HT2B receptor | affinity for the 5-HT2B receptor [5]: found to have affinity for the 5-HT2B receptor
